Assay results published in US8258145B2, “Method of treating brain cancer” (Myrexis, Inc., priority 2005, dated 2012).

Test system: T-47D
Assay: Caspase cascade activation (caspase activity ratio and potency), fluorogenic N-(Ac-DEVD)-N'-ethoxycarbonyl-R110 substrate
Format: cell-based, Human
Conditions: T-47D (24 hr)
Experimental: Human breast cancer cell lines T-47D and DLD-1 were grown according to media component mixtures designated by American Type Culture Collection+10% FCS (Invitrogen Corporation), in a 5% CO2−95% humidity incubator at 37° C. T-47D and DLD-1 cells were maintained at a cell density between 50 and 80% confluency at a cell density of 0.1 to 0.6×10^6 cells/mL. Cells were harvested at 600×g and resuspended at 0.65×10^6 cells/mL into appropriate media+10% FCS. An aliquot of 22.5 μL of cells was added to a well of a 384-well microtiter plate containing 2.5 μL of a 10% DMSO in RPMI-1640 media solution containing 0.16 to 100 μM of (2-chloro-quinazolin-4-yl)-(4-methoxy-phenyl)-methyl-amine or other test compound (0.016 to 10 μM final). An aliquot of 22.5 μL of cells was added to a well of a 384-well microtiter plate containing 2.5 μL of a 10% DMSO in RPMI-1640 media solution without test compound as the control sample. […] […] The samples were mixed by agitation and incubated at room temperature. Using a fluorescent plate reader (Model SPECTRAfluor Plus, Tecan), an initial reading (T=0) was made approximately 1-2 min after addition of the substrate solution, employing excitation at 485 nm and emission at 530 nm, to determine the background fluorescence of the control sample. After the 3 h incubation, the samples were read for fluorescence as above (T=3 h).
The Relative Fluorescence Unit values (RFU) were used to calculate the sample readings as follows: RFU(T=3h)−Control RFU(T=0)=Net RFU(T=3h)
The activity of caspase cascade activation was determined by the ratio of the net RFU value for (2-chloro-quinazolin-4-yl)-(4-methoxy-phenyl)-methyl-amine or other test compounds to that of control samples. The EC50 (nM) was determined by a sigmoidal dose-response calculation (Prism 3.0, GraphPad Software Inc.).

How did the “Caspase activity Ratio (net RFU of test compound to control)” value (shortened to “Caspase activity Ratio”) turn out when `Cc1ccc(N(C)c2nc(Cl)nc3ccccc23)cc1` [Example 2, (2-Chloro-quinazolin-4-yl)-(4-methyl-phenyl)-methyl-amine] was run?
Its value is 6.7.

With `CN(c1ccc(Cl)cc1)c1nc(Cl)nc2ccccc12` [Example 3, (2-Chloro-quinazolin-4-yl)-(4-chloro-phenyl)-methyl-amine] as the molecule, how does the “Caspase activity Ratio” value read?
Its value is 8.1.

With `CN(c1ccc(OC(F)(F)F)cc1)c1nc(Cl)nc2ccccc12` [Example 4, (2-Chloro-quinazolin-4-yl)-(4-trifluoromethoxy-phenyl)-methyl-amine] as the molecule, how does the “Caspase activity Ratio” value read?
Its value is 10.3.

For `COc1ccc(N(C)c2nc(N3CCOCC3)nc3ccccc23)cc1` [Example 6, (4-Methoxy-phenyl)-methyl-(2-morpholin-4-yl-quinazolin-4-yl)-amine], which “Caspase activity Ratio” value is on record?
Its value is 5.7.

For `COc1ccc(N(C)c2nc(Cl)nc3ccccc23)cn1` [Example 7, (2-Chloro-quinazolin-4-yl)-(6-methoxy-pyridin-3-yl)-methyl-amine], which “Caspase activity Ratio” value is on record?
The value was 6.7.

With `COc1ccc(N(C)c2nc(CCl)nc3ccccc23)cc1` [Example 22, (2-Chloromethyl-quinazolin-4-yl)-(4-methoxy-phenyl)-methyl-amine] as the molecule, how does the “Caspase activity Ratio” value read?
Its value is 6.2.

Which “Caspase activity Ratio” value does the source give for `COc1cccc(N(C)c2nc(Cl)nc3ccccc23)c1OC` [Example 24, (2-Chloro-quinazolin-4-yl)-(2,3-dimethoxy-phenyl)-methyl-amine] here?
The value was 4.5.

Which “Caspase activity Ratio” value does the source give for `Cc1nc(N(C)c2ccc(OC(F)F)cc2)c2ccccc2n1` [Example 25, (4-Difluoromethoxy-phenyl)-(2-methyl-quinazolin-4-yl)-methyl-amine] here?
The value was 6.7.

For `COc1ccc(N(C)c2nc(C)nc3ccccc23)cc1F` [Example 26, (3-Fluoro-4-methoxy-phenyl)-(2-methyl-quinazolin-4-yl)-methyl-amine], which “Caspase activity Ratio” value is on record?
The value was 7.6.

For `Cc1nc(N(C)c2ccc(OC(C)C)cc2)c2ccccc2n1` [Example 27, (4-Isopropoxy-phenyl)-(2-methyl-quinazolin-4-yl)-methyl-amine], which “Caspase activity Ratio” value is on record?
Its value is 6.2.

Which “Caspase activity Ratio” value does the source give for `CCc1ccc(N(C)c2nc(C)nc3ccccc23)cc1` [Example 28, (4-Ethyl-phenyl)-(2-methyl-quinazolin-4-yl)-methyl-amine] here?
Its value is 6.3.

For `COc1ccc(N(C)c2nc(Cl)nc3cccc(Cl)c23)cc1` [Example 30, (2,5-Dichloro-quinazolin-4-yl)-(4-methoxy-phenyl)-methyl-amine], which “Caspase activity Ratio” value is on record?
The value was 10.6.

For `COc1ccc(N(C)c2nc(C)nc3cccc(OC)c23)cc1` [Example 31, (5-Methoxy-2-methyl-quinazolin-4-yl)-(4-methoxy-phenyl)-methyl-amine], which “Caspase activity Ratio” value is on record?
The value was 8.3.

With `COc1ccc(N(C)c2nc(C)nc3ccccc23)c(F)c1` [Example 34, (2-Fluoro-4-methoxy-phenyl)-(2-methyl-quinazolin-4-yl)-methyl-amine] as the molecule, how does the “Caspase activity Ratio” value read?
Its value is 6.9.

`CCOc1ccc(N(C)c2nc(C)nc3ccccc23)cc1` [Example 36, (4-Ethoxy-phenyl)-(2-methyl-quinazolin-4-yl)-methyl-amine] was tested. Which “Caspase activity Ratio” value did it give?
Its value is 5.2.

`COc1ccc(N(C)c2nc(SC)nc3ccccc23)cc1` [Example 37, (2-Methylthio-quinazolin-4-yl)-(4-methoxy-phenyl)-methyl-amine] was tested. Which “Caspase activity Ratio” value did it give?
The value was 5.2.

`COc1ccc(N(C)c2nc(N(C)C)nc3ccccc23)cc1` [Example 38, (2-Dimethylamino-quinazolin-4-yl)-(4-methoxy-phenyl)-methyl-amine] was tested. Which “Caspase activity Ratio” value did it give?
The value was 8.2.

How did the “Caspase activity Ratio” value turn out when `COc1ccc(N(C)c2nc(C)nc3ccccc23)nc1` [Example 41, (5-Methoxy-pyridin-2-yl)-(2-methyl-quinazolin-4-yl)-methyl-amine] was run?
The value was 5.0.

For `COc1ccc(N(C)c2nc(NCc3ccccc3)nc3ccccc23)cc1` [Example 42, (2-Benzylamino-quinazolin-4-yl)-(4-methoxyphenyl)-methylamine], which “Caspase activity Ratio” value is on record?
The value was 8.2.

Same assay, conditions: T-47D (48 hr)

With `COc1ccc(N(C)c2nc(NO)nc3ccccc23)cc1` [Example 5, N^2-Hydroxyl-N^4-(4-methoxy-phenyl)-N^4-methyl-quinazoline-2,4-diamine] as the molecule, how does the “Caspase activity Ratio” value read?
Its value is 12.8.

For `COc1ccc(N(C)c2nc(N3CCOCC3)nc3ccccc23)cc1` [Example 6, (4-Methoxy-phenyl)-methyl-(2-morpholin-4-yl-quinazolin-4-yl)-amine], which “Caspase activity Ratio” value is on record?
Its value is 11.5.

How did the “Caspase activity Ratio” value turn out when `CCN(c1ccc(OC)cc1)c1nc(Cl)nc2ccccc12` [Example 8, (2-Chloro-quinazolin-4-yl)-ethyl-(4-methoxy-phenyl)-amine] was run?
The value was 6.1.

For `COc1ccc(N(C)c2nc(Cl)nc3ccccc23)c(OC)c1` [Example 9, (2-Chloro-quinazolin-4-yl)-(2,4-dimethoxy-phenyl)-methyl-amine], which “Caspase activity Ratio” value is on record?
Its value is 12.4.

With `COc1cccc(N(C)c2nc(Cl)nc3ccccc23)c1` [Example 10, (2-Chloro-quinazolin-4-yl)-(3-methoxy-phenyl)-methyl-amine] as the molecule, how does the “Caspase activity Ratio” value read?
Its value is 14.7.

`COc1ccc(N(C)c2nc(CF)nc3ccccc23)cc1` [Example 12, (2-Fluoromethyl-quinazolin-4-yl)-(4-methoxy-phenyl)-methyl-amine] was tested. Which “Caspase activity Ratio” value did it give?
Its value is 9.0.

With `COc1ccc(N(C)c2nc(Cl)nc3ccc(C)cc23)cc1` [Example 13, (2-Chloro-6-methyl-quinazolin-4-yl)-(4-methoxy-phenyl)-methyl-amine] as the molecule, how does the “Caspase activity Ratio” value read?
Its value is 4.9.

`COc1ccc(N(C)c2nc(Cl)nc3cccc(C)c23)cc1` [Example 14, (2-Chloro-5-methyl-quinazolin-4-yl)-(4-methoxy-phenyl)-methyl-amine] was tested. Which “Caspase activity Ratio” value did it give?
Its value is 10.8.

`COc1ccc(N(C)c2nc(Cl)nc3c(C)cccc23)cc1` [Example 15, (2-Chloro-8-methyl-quinazolin-4-yl)-(4-methoxy-phenyl)-methyl-amine] was tested. Which “Caspase activity Ratio” value did it give?
Its value is 7.1.

With `COc1ccc(N(C)c2nc(Cl)nc3ccc(Cl)cc23)cc1` [Example 16, (2,6-Dichloro-quinazolin-4-yl)-(4-methoxy-phenyl)-methyl-amine] as the molecule, how does the “Caspase activity Ratio” value read?
The value was 6.5.

With `CN(c1ccc2c(c1)OCO2)c1nc(Cl)nc2ccccc12` [Example 18, (2-Chloro-quinazolin-4-yl)-(3,4-methylenedioxyphenyl)-methyl-amine] as the molecule, how does the “Caspase activity Ratio” value read?
Its value is 12.5.

`COc1ccc(N(C)c2nc(Cl)nc3ccccc23)cc1OC` [Example 19, (2-Chloro-quinazolin-4-yl)-(3,4-dimethoxy-phenyl)-methyl-amine] was tested. Which “Caspase activity Ratio” value did it give?
Its value is 13.1.

Which “Caspase activity Ratio” value does the source give for `CCCOc1ccc(N(C)c2nc(Cl)nc3ccccc23)cc1` [Example 20, (2-Chloro-quinazolin-4-yl)-(4-propoxy-phenyl)-methyl-amine] here?
The value was 11.3.

For `COc1ccc(N(C)c2nc(CCl)nc3ccccc23)cc1` [Example 22, (2-Chloromethyl-quinazolin-4-yl)-(4-methoxy-phenyl)-methyl-amine], which “Caspase activity Ratio” value is on record?
The value was 5.7.

With `COc1ccc(N(C)c2nc(Cl)nc3c(Cl)cccc23)cc1` [Example 29, (2,8-Dichloro-quinazolin-4-yl)-(4-methoxy-phenyl)-methyl-amine] as the molecule, how does the “Caspase activity Ratio” value read?
The value was 7.8.

For `CCOc1ccc(N(C)c2nc(Cl)nc3ccccc23)cc1` [Example 32, (2-Chloro-quinazolin-4-yl)-(4-ethoxy-phenyl)-methylamine], which “Caspase activity Ratio” value is on record?
Its value is 9.0.
